This is an account of results in patent US20210169854A1, “3'-[(2Z)-[1-(3,4-dimethylphenyl)-1,5-dihydro-3-methyl-5-oxo-4H-pyrazol-4-ylidene]hydrazino]-2'-hydroxy-[1,1'-biphenyl]-3-carboxylic acid and its salts formulation” (NOVARTIS AG, priority 2019, published 2021).

For series [1] the following is noted: standard high-fat breakfast; cited from earlier work.
The nature of series [2]: Solubility and permeability of eltrombopag (general statements, data not shown). It is filed as physicochemical. The conditions noted are these: even in the form of bis-monoethanolamine salt.
The conditions of series [3]: cited from earlier work.
For series [4] the following is noted: cited from earlier work. The source holds these as a separate data set.
The conditions of series [5]: cited from earlier work. This is another data set of the same source.
[6] abbreviates: single 25-mg dose for oral suspension 2 hours after the high-calcium meal.
Where [7] appears, read: single 25-mg dose for oral suspension 2 hours before the high-calcium meal.
Where [8] appears, read: single 25-mg dose for oral suspension with a high-calcium, moderate-fat, moderate-calorie meal.

Like-named read-outs stand apart in the source and are kept apart here.

Take `CC1=NN(c2ccc(C)c(C)c2)C(=O)/C1=N\Nc1cccc(-c2cccc(C(=O)O)c2)c1O` [eltrombopag, 3′-[(2Z)-[1-(3,4-dimethylphenyl)-1,5-dihydro-3-methyl-5-oxo-4H-pyrazol-4-ylidene]hydrazino]-2′-hydroxy-[1,1′-biphenyl]-3-carboxylic acid]: the “decrease of plasma eltrombopag AUCO-∞” value in series [1] was “approximately 59%”. The “decrease of plasma eltrombopag Cmax” value in series [1] is 65%. Further, the “solubility in water and in a number of liquid/semisolid surfactants” value in series [2] is listed as “low solubility”. The “reduction of plasma eltrombopag AUCO-∞” value is on record as 47% in series [3] (setting [6]), 20% in series [3] (setting [7]) and 75% in series [3] (setting [8]). The “reduction of plasma eltrombopag Cmax” value is on record as 48% in series [3] (setting [6]), 14% in series [3] (setting [7]) and 79% in series [3] (setting [8]). Further, the “solubility (BCS context)” value in series [4] is listed as “low soluble”.

Take `C[C@]12CC[C@H](O)CC1=CC[C@@H]1[C@@H]2CC[C@]2(C)C(c3cccnc3)=CC[C@@H]12` [abiraterone]: in series [5] (after a high fat meal), the “AUC elevation compared with the fasted state” value is listed as 10 fold and the “Cmax elevation compared with the fasted state” value is 17 fold. Besides, in series [5] (after a low fat meal), the “AUC elevated compared with the fasted state” value is reported as 5 fold and the “Cmax elevated compared with the fasted state” value is on record as 7 fold.
